According to patent US20110173718A1, “HERBICIDE TOLERANT PLANTS” (SYNGENTA CROP PROTECTION, INC., priority 2008, published 2011):
Where “and” joins values, the source holds several entries; their conditions need not be identical. Equal values may be shown once.

Columns and labels:
[1] = system: wild-type (WT) Samsun tobacco; assay: Glasshouse spray test, wild-type tobacco; type: in vivo; settings: for % damage observed 16 DAT: w/t tobacco; for score on a scale from 0 to 10 (0 substantially bleached/burnt, meristem dead/white; 10 entire plant green and undamaged): 500 g/ha, 11 DAT; for percent damage at 6 DAT / blch (% bleaching at the meristem relative to control plants) / ht (% height reduction relative to control plants): WT; for % damage at 7 DAT: WT Samsun, individual plants; for blch (% bleaching at the meristem relative to control plants) / ht (% height reduction relative to control plants): 100 g
In short: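 Wild-type Samsun tobacco grown from seed was planted in 3 inch pots, grown on under glasshouse conditions (about 24-27° C. day, 18-21° C. night, ~14 h photoperiod, ~65% humidity) and spray-treated alongside transgenic lines. Test chemicals were formulated in water with 0.2% X77 surfactant and applied by track sprayer at 200 l/ha. Height reduction, bleaching and damage were scored against unsprayed control plants of like size.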

[2] = system: HST in spinach chloroplast extract; assay: HST assay (TLC, MFBQ formed), spinach chloroplast extract; type: biochemical; settings: for Spinach chloroplast extract % I at 25 ppm: TLC, estimated amount of MFBQ formed, relative to controls
Method: HST enzyme preparations for assay are also prepared directly from fresh plant material. For example HST enzyme preparations are from spinach. In the first step intact spinach chloroplasts are prepared from two lots of 500 g of fresh baby spinach leaves (e.g from the salad section of the local supermarket). Prepacked spinach is usually already washed, but if buying loose leaves these must be rinsed in water before proceeding. Stalks, large leaves and mid-ribs are removed. Each 500 g lot of leaves is added to 1.5 l of ‘Grinding medium’ in a 2 L plastic beaker. Grinding medium is cold (4° C.) 50 mM Tricine/NaOH buffer at pH 7.1 containing 330 mM glucose, 2 mM sodium isoascorbate, 5 mM MgCl2 and 0.1% bovine serum albumen The beaker, kept at 4° C., is placed under a Polytron 6000 blender, fitted with a 1.5″cutting probe and the mixture blended in short bursts of 5-8 sec up to 8-10K rpm until all the leaves are macerated. The homogenate is filtered into a 5 L beaker (embedded in an ice bucket) through four layers of muslin, and two layers of 50μ mesh nylon cloth. The filtrate is transferred to 250 ml buckets of a Beckman GS-6 centrifuge and spun at […] (3020 rpm) for 2 min at 4° C. The supernatant is drained away and discarded to leave a sediment of chloroplasts. Chloroplasts are resuspended in a few ml of cold resuspension medium by gentle swirling and gentle use of a quill brush soaked in resuspension medium. Resuspension medium is 50 mM Hepes/KOH pH 7.8 containing 330 mM sorbitol, 2 mM EDTA, 5 mM KH2PO4, 2 mM MgCl2 and 0.1% bovine serum albumen at 4° C. The chloroplasts are resuspended in 5-10 ml of resuspension buffer, recentrifuged down and resuspended again in order to wash them. The chloroplasts are then once again centrifuged down and then broken by resuspension in about 5 ml of 50 mM Tricine-NaOH pH 7.8 to a protein concentration of about 40 mg/ml. The solution is stored frozen at −80° C. in aliquots. This resuspension is defrosted and used directly in HST activity assays. Alternatively, chloroplasts are prepared resuspended in 50 mM Tris/HCl buffer at pH 7.8 containing 330 mM sorbitol (alternative resuspension buffer) and layered on top of a percol gradient (comprising the same buffer containing 45% percol), spun down, the intact chloroplast fraction taken and washed 2 or 3 times in the alternative resuspension buffer and then spun down again, resuspended in breaking buffer (without sorbitol), flash frozen and stored in aliquots at −80° C.
Prenyltransferase (HST) activities are measured by determining the prenylation rates of [U—^14C]homogentisate using farnesyl diphosphate (FDP) as prenyl donor. ^14C homogentisate is prepared from ^14C tyrosine using L amino acid oxidase and HPPD. For inhibitor testing, compounds are dissolved in dimethylsulfoxide (DMSO). DMSO added at up to 2% v/v has no effect on assays. Control assays contain DMSO at the same concentration as in inhibitor containing assays.
Assays using spinach chloroplast extracts (100 μl final volume) contain up to 2 mg of chloroplast protein, 50 mM Tricine-NaOH pH 8.5, 50 mM MgCl2, 200 μM farnesyl diphosphate (FDP) and 26 μM ^14C-homogentisate (167 dpm/pmol). Assays are run for about an hour at 28° C. […] Lipophilic reactions products are extracted and analyzed essentially as described in the literature.
Using the above assays percentage inhibition of the amount of MFBQ formed at a range of doses of inhibitors relative to the control amount obtained with no inhibitor present is reported (Table 1). The better inhibitors give greater percentage inhibition at lower doses.

[3] = WT tobacco, spray with 40 g of compound 1.1, 7 DAT
[4] = WT tobacco, spray with 40 g of compound 1.1, 14 DAT
[5] = 17 DAT, Chlamydomonas HST section
[6] = WT tobacco, spray with 500 g of compound 2.30, 7 DAT
[7] = WT tobacco, spray with 500 g of compound 2.30, 17 DAT

O=c1c(-c2c(F)ccc(F)c2Cl)c(O)c2nccnc2n1CC(F)F [Compound 2.3]
% damage observed 16 DAT ([1]; 37 g/ha): 17% | % damage observed 16 DAT ([1]; 111 g/ha): 40% | % damage observed 16 DAT ([1]; 333 g/ha): 47% | score on a scale from 0 to 10 (0 substantially bleached/burnt, meristem dead/white; 10 entire plant green and undamaged) ([1]; W/T_SD): 0 | score on a scale from 0 to 10 (0 substantially bleached/burnt, meristem dead/white; 10 entire plant green and undamaged) ([1]; W/T_TC): 0 | % damage observed 16 DAT ([1]; 1000 g/ha): 57%

O=c1c(-c2c(Cl)ccc(Cl)c2Cl)c(O)c2nccnc2n1CC(F)F [Compound 2.14]
Spinach chloroplast extract % I at 25 ppm [2]: 80%

CS(=O)(=O)c1ccc(C(=O)C2C(=O)CCCC2=O)c([N+](=O)[O-])c1 [Mesotrione, mesotrione, reference compound]
Damage % 5 DAT ([1]; 10 g/ha, 5 DAT, wt plants): 55% and 50% and 60% | % damage observed 16 DAT ([1]; 37 g/ha): 66% | percent damage at 6 DAT ([1]; 100 g/ha, reps): 80% and 70% | % damage observed 16 DAT ([1]; 111 g/ha): 57% | % damage observed 16 DAT ([1]; 333 g/ha): 57% | % damage observed 16 DAT ([1]; 1000 g/ha): 54% | ht (herbicidal damage) ([1]; WT tobacco, 15 g/ha of mesotrione, 21 DAT): 90 and 85 and 75

O=c1c(-c2c(F)ccc(F)c2Cl)c(O)c2cccnc2n1CC(F)F [Compound 2.13]
Spinach chloroplast extract % I at 25 ppm [2]: 40%

Oc1c(Cl)c(F)nc(F)c1Cl [Compound 1.1, haloxydine]
Spinach chloroplast extract % I at 25 ppm [2]: 70% | inhibition of the HST reaction ([2]; final concentration 500 ppm): completely inhibit | % damage at 7 DAT ([1]; 25 gai/ha): 75% | % damaged ([1]; 250 g/ha, 8 DAT, w/t plants, 4-5 leaf): 55% and 65% | % damage ([1]; 250 g/ha, 25 DAT, w/t plants): 50-70% | blch: % bleaching at the meristem relative to control plants [1, 3]: 70% and 65% and 60% and 75% and 80% | ht: % height reduction relative to control plants [1, 3]: 60% and 65% and 75% and 70% | blch: % bleaching at the meristem relative to control plants [1, 4]: 40% and 70% and 60% and 75% and 65% | ht: % height reduction relative to control plants [1, 4]: 60% and 70% and 75% and 65% | ht: % height reduction relative to control plants ([1]; WT tobacco, spray with 40 g of compound 1.1, 21 DAT): 70% and 80% and 85% and 60% and 55% and 65%

CC(C)C(=O)Oc1c(-c2c(F)ccc(Br)c2Cl)c(=O)n(CC(F)F)c2nccnc12 [Compound 2.30]
blch (% bleaching at the meristem relative to control plants) ([1]; 7 DAT, Arabidopsis HST section): 85% and 70% and 75% and 80% | ht (% height reduction relative to control plants) ([1]; 7 DAT, Arabidopsis HST section): 80% and 85% and 75% | blch (% bleaching at the meristem relative to control plants) ([1]; 7 DAT, wheat HPPD section): 85% and 70% and 75% and 80% | ht (% height reduction relative to control plants) ([1]; 7 DAT, wheat HPPD section): 80% and 85% and 75% | blch (% bleaching at the meristem relative to control plants) [1, 5]: 85% and 70% and 75% and 80% | ht (% height reduction relative to control plants) [1, 5]: 80% and 85% and 75% | ht (% height reduction relative to control plants) ([1]; 21 DAT, wheat HPPD section): 95% and 90% and 75% and 80% | ht (% height reduction relative to control plants) ([1]; 26 DAT, Arabidopsis HST section): 95% and 90% and 75% and 80% | ht (% height reduction relative to control plants) ([1]; 26 DAT, Chlamydomonas HST section): 95% and 90% and 75% and 80% | percent damage at 6 DAT ([1]; 150 g/ha, reps): 70% | % damage at 7 DAT ([1]; 150 gai/ha): 75% and 80% and 85% | % damage at 7 DAT ([1]; 300 gai/ha): 75% and 70% and 80% | % damage at 7 DAT ([1]; 450 gai/ha): 70% (2×) and 75% | herbicide % damage ([1]; Compound 2.30, 150 g/ha, 14 DAT, WT control, reps): 60% and 70% and 75% | blch: % bleaching at the meristem relative to control plants [1, 6]: 70% and 75% and 80% | ht: % height reduction relative to control plants [1, 6]: 85% and 90% | blch: % bleaching at the meristem relative to control plants [1, 7]: 80% and 70% and 75% | ht: % height reduction relative to control plants [1, 7]: 90% and 85% | ht: % height reduction relative to control plants ([1]; WT tobacco, spray with 500 g of compound 2.30, 26 DAT): 70% and 85% and 100% and 90% and 80%

O=c1c(-c2cc(C(F)(F)F)ccc2Cl)c(O)c2nccnc2n1CC(F)F [Compound 2.9]
Spinach chloroplast extract % I at 25 ppm [2]: 90%

O=c1c(-c2c(F)ccc(Br)c2Cl)c(O)c2nccnc2n1CC(F)F [Compound 2.8]
Spinach chloroplast extract % I at 25 ppm [2]: 70%
